Test results published in ChEMBL document CHEMBL1201862, “PubChem BioAssay data set” (2004).
Activity calls are given as the source filed them.

How the values were obtained:
[1] = molecular target: T1, Hepatocyte nuclear factor 4-alpha (Homo sapiens, UniProt P41235); assay type: functional, cell-based;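 note: biochemical luminescence-based dose-response counterscreen measuring inhibition of HNF4 dimerization, run alongside a screen for blockers of ABHD5–perilipin-5 interaction; split luciferase complementation of HNF4 fusion proteins in cell lysate measuring dimerization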
T1 sequence (P41235 whole entry): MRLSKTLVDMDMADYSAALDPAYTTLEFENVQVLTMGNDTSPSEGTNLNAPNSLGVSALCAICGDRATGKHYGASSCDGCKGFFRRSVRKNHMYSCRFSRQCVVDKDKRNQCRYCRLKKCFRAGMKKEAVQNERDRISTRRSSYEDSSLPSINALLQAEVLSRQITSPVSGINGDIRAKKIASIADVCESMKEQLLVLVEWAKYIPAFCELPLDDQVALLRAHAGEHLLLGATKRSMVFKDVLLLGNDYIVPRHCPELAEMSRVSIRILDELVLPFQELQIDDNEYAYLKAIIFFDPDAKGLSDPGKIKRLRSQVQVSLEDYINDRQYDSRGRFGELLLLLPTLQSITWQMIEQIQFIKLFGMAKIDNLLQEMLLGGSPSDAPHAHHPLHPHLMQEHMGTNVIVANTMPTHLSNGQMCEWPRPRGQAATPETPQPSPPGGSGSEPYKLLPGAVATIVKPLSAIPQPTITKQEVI

cells [2] = assay type: functional, cell-based
[3] = molecular target: T2, Nuclear receptor subfamily 0 group B member 1 (Homo sapiens, UniProt P51843); assay type: functional, cell-based;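 note: HEK293T cells transfected with SF-1 and DAX-1 plus StAR promoter luciferase reporter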
T2 sequence (P51843 whole entry): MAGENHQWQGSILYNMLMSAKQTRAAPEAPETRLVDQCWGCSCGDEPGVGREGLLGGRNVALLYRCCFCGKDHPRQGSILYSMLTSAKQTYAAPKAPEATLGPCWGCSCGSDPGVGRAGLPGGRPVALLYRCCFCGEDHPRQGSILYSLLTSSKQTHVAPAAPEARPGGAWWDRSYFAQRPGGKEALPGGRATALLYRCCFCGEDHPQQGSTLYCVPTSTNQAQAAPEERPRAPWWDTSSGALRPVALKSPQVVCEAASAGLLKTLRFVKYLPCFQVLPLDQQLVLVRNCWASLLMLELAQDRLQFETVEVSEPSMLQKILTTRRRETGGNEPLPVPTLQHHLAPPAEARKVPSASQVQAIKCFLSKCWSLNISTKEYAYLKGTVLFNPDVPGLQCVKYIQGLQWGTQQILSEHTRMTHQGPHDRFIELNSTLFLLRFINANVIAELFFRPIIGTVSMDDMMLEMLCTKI

[4] = molecular target: T3, COUP transcription factor 2 (Homo sapiens, UniProt P24468); test: Luminescence-based cell-based high throughput dose response assay to identify inhibitors of COUP-TFII (NR2F2).; assay type: functional;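 note: HEK293 cells transiently cotransfected with COUP-TFII expression vector and reporter; luciferase reporter luminescence driven by COUP-TFII from the pX2-168 reporter plasmid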
T3 sequence (P24468 whole entry): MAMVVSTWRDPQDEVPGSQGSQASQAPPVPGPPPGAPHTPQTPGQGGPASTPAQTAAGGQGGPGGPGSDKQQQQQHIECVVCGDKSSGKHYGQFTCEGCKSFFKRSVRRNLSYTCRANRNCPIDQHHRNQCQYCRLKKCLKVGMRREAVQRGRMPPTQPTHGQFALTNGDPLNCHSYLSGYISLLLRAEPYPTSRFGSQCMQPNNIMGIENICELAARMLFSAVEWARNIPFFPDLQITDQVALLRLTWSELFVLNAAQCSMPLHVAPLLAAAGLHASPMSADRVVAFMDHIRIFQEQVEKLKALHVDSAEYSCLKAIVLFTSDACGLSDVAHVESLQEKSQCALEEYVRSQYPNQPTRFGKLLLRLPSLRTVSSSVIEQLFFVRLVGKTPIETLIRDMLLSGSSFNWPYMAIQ

[5] = molecular target: T4, Oxysterols receptor LXR-beta (Homo sapiens, UniProt P55055); assay type: functional, cell-based;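 note: agonist activity at LXR measured by a cell-based luminescence readout across a dose range, run as a counterscreen for daf-12 agonists; HEK293 cells with Gal4-LXR fusion and GAL4-driven luciferase reporter; potency for activation of Gal4-LXR reporter so compounds are agonists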
T4 sequence (P55055 whole entry): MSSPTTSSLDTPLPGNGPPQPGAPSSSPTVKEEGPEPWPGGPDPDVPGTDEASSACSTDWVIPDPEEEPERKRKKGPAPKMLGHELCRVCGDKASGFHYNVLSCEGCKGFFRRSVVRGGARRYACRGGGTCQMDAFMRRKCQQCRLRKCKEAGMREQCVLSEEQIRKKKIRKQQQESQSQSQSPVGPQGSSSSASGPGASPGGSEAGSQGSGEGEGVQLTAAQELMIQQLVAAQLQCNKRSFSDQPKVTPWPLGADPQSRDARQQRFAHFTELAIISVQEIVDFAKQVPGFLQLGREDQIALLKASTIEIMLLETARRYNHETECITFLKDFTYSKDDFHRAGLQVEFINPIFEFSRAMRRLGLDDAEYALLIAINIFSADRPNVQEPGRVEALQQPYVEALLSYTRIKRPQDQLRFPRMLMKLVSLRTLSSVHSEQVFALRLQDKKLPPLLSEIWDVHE

[6] = HEK293T cytotoxicity, dose response, cytotoxicity control for miR-122 modulator project, cell-based, inhibitor set, cherry-pick, set 2 (AID 720697); assay type: functional
[7] = molecular target: T5, Fructose-bisphosphate aldolase (Mycobacterium tuberculosis, UniProt P9WQA3); test: Fluorescence-based biochemical high throughput dose response assay for inhibitors of the fructose-bisphosphate aldolase (FBA) of M. tuberculosis.; assay type: functional
T5 sequence (P9WQA3 whole entry): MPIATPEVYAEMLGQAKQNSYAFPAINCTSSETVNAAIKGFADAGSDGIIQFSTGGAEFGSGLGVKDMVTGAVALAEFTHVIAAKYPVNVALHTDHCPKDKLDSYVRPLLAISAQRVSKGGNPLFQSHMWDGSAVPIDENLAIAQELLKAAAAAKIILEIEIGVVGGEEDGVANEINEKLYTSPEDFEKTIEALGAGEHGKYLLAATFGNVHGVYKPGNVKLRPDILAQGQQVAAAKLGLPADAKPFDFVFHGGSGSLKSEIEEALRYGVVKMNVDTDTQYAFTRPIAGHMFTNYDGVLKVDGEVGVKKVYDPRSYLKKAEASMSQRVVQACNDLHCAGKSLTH

[8] = Luminescence Cell-Based Dose Confirmation HTS to Identify Activators of 5'UTR Stem-Loop Driven Alpha-Synuclein mRNA Translation in H4 Neuroglioblastoma Cells. [Related pubchem assays: 1829 (Project Summary), 1814 (Primary HTS)]; assay type: functional
[9] = Luminescence Cell-Based Dose Response HTS to Identify Activators of Luciferase Translation or Activity in H4 […] Cells. [Related pubchem assays: 1829 (Project Summary), 1814 (Primary HTS)]; assay type: functional
cells [10] = assay type: functional, cell-based; remark: listed apart in the source
H4 = test: Luminescence Cell-Based Dose Response HTS to Identify Activators of 5'UTR Stem-Loop Driven Prion Protein mRNA Translation in H4 Neuroglioblastoma Cells. [Related pubchem assays: 1829 (Project Summary), 1814 (Primary HTS)]; assay type: functional; conditions: Homo sapiens
cells [11] = assay type: functional, cell-based; remark: listed apart in the source

## COc1ccc(NC(=O)C(c2ccnc3ccccc23)n2c(=O)c(-c3ccco3)nc3ccccc32)cc1 (stereo not drawn)
[1]
  IC50: 10.9 µM (inactive)

## COc1ccc(C(C(=O)NCc2ccccc2)n2c(=O)c(-c3ccco3)nc3ccccc32)cc1 (stereo not drawn)
[1]
  IC50: 2.46 µM (active)

## Cc1ccc(-c2nc3ccc(Br)cn3c2Cc2ccccc2)cc1
Cells [2]
  IC50: > 67.6 µM (inactive)
[3]
  IC50: > 67.6 µM (inactive)

## O=C(NC1CCCCC1)C(c1ccc(C(F)(F)F)cc1)n1c(=O)c(-c2ccco2)nc2ccccc21 (stereo not drawn)
[1]
  IC50: 2.41 µM (active)

## Cc1c(C(=O)NCc2ccc(C(C)C)cc2)sc(=O)n1Cc1ccc(S(=O)(=O)N(C)C)cc1
[4]
  IC50: 6.46 µM (active)

## O=c1c2ccccc2nnn1CSc1ccccc1F
[5]
  EC50: > 67.5 µM (inactive)

## CC(C)NC(=O)N1C[C@@H]2[C@H](c3ccccc31)[C@@H](CO)N2C(=O)c1cccnc1
[6]
  AC50: 10.1 µM (active)

## O=C(NCc1cccc(Cl)c1)C1=CC=CN2CCS(=O)(=O)N=C12
[7]
  IC50: 2.61 µM (active)

## Cn1cccc1-c1nc2ccccc2n1C
[7]
  IC50: 3.08 µM (active)

## COc1ccc(/C=C2\Oc3ccccc3C2=O)cc1 [4'-METHOXY-AURONE]
[7]
  IC50: 0.912 µM (active)

## Cc1ccnc(NC(=O)/C=C/c2cccs2)c1
[5]
  EC50: > 67.6 µM (inactive)

## O=C(NCCCn1ccnc1)c1cc(-c2cccs2)on1
[8]
  EC50: 12.4 µM (active)
[9]
  EC50: 16.9 µM (active)
Cells [10]
  EC50: 13.2 µM (active)
H4
  EC50: 12.3 µM (active)
Cells [11]
  EC50: > 350 µM (not active)
[5]
  EC50: > 67.5 µM (inactive)
